How the values were obtained:
[1] = molecular target: T1, Phosphatidylinositol 4,5-bisphosphate 3-kinase catalytic subunit delta isoform (Homo sapiens) (UniProt O00329); assay: Induction of p110delta degradation in human SU-DHL-6 cells at 1000 nM incubated for 24 hrs by Western blot analysis; format: cell-based
T1 sequence (whole entry): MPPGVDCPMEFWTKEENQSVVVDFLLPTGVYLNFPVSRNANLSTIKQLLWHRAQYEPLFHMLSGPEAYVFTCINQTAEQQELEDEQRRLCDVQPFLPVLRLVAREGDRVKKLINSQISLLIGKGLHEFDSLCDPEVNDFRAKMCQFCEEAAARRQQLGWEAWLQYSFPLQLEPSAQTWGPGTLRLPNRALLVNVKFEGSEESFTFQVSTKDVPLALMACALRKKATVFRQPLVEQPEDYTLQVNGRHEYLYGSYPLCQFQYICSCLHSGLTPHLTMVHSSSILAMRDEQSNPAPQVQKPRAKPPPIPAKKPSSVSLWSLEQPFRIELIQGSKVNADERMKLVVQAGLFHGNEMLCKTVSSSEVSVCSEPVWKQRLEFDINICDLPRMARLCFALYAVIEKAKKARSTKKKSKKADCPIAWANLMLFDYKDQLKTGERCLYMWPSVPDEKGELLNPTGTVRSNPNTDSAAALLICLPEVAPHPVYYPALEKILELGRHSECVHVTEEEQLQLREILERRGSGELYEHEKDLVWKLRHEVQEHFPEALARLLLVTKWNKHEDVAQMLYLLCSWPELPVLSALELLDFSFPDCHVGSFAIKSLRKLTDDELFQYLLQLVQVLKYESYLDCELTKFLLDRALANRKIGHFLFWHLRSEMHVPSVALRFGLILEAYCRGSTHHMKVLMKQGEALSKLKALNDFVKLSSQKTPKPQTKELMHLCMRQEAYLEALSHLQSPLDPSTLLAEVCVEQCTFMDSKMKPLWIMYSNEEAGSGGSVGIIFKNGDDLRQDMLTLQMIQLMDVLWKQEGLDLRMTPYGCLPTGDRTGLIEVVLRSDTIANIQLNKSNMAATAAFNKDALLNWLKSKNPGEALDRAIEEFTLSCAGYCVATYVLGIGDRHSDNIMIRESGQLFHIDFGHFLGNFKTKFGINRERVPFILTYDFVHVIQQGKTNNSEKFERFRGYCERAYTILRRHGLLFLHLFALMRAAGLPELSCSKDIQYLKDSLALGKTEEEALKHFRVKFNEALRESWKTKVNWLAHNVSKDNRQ

[2] = molecular target: von Hippel-Lindau disease tumor suppressor/Phosphatidylinositol 4,5-bisphosphate 3-kinase catalytic subunit delta isoform (Homo sapiens) (UniProt O00329+P40337); assay: PROTAC activity at VHL/p110delta in human SU-DHL-6 cells assessed as induction of p110delta degradation at 100 nM measured after 12 hrs in presence of (2S,4R)-1-((S)-2-acetamido-3,3-dimethylbutanoyl)-4-hydroxy-N-(4-(4-methylthiazol-5-yl)benzyl)pyrrolidine-2-carboxamide by Western blot analysis; format: cell-based
SU-DHL-6 [3] = assay: Induction of apoptosis in human SU-DHL-6 cells assessed as late apoptotic cells at 1 uM incubated for 24 hrs by Annexin V-FITC/PI staining based flow cytometric analysis (reference value: 4.75 %); format: functional
Pfeiffer = assay: Antiproliferative activity against human Pfeiffer cells assessed as cell growth inhibition incubated for 72 hrs by MTT assay; format: functional
SU-DHL-6 [4] = assay: Induction of apoptosis in human SU-DHL-6 cells assessed as viable cells at 1 uM incubated for 24 hrs by Annexin V-FITC/PI staining based flow cytometric analysis (reference value: 92.54 %); format: functional; conditions: read-out: Activity
SU-DHL-6 [5] = assay: Induction of apoptosis in human SU-DHL-6 cells assessed as necrotic cells at 10 uM incubated for 24 hrs by Annexin V-FITC/PI staining based flow cytometric analysis (reference value: 0.39 %); format: functional
SU-DHL-6 [6] = assay: Induction of apoptosis in human SU-DHL-6 cells assessed as necrotic cells at 1 uM incubated for 24 hrs by Annexin V-FITC/PI staining based flow cytometric analysis (reference value: 0.39 %); format: functional
SU-DHL-6 [7] = assay: Antiproliferative activity against human SU-DHL-6 cells assessed as cell growth inhibition incubated for 72 hrs by MTT assay; format: functional
SU-DHL-6 [8] = assay: Induction of apoptosis in human SU-DHL-6 cells assessed as early apoptotic cells at 10 uM incubated for 24 hrs by Annexin V-FITC/PI staining based flow cytometric analysis (reference value: 2.32 %); format: functional
SU-DHL-6 [9] = assay: Antitumor activity against human SU-DHL-6 cells xenografted in male nude mouse model assessed as tumor growth inhibition at 2 mg/kg, ip administered for 21 days relative to control; format: functional; conditions: SU-DHL-6, 504 h, time 21 day, read-out: TGI
SU-DHL-6 [10] = assay: Induction of apoptosis in human SU-DHL-6 cells assessed as viable cells at 10 uM incubated for 24 hrs by Annexin V-FITC/PI staining based flow cytometric analysis (reference value: 92.54 %); format: functional; conditions: read-out: Activity
SU-DHL-6 [11] = assay: Induction of apoptosis in human SU-DHL-6 cells assessed as early apoptotic cells at 1 uM incubated for 24 hrs by Annexin V-FITC/PI staining based flow cytometric analysis (reference value: 2.32 %); format: functional
SU-DHL-6 [12] = assay: Induction of apoptosis in human SU-DHL-6 cells assessed as late apoptotic cells at 10 uM incubated for 24 hrs by Annexin V-FITC/PI staining based flow cytometric analysis (reference value: 4.75 %); format: functional
[13] = molecular target: T1, Phosphatidylinositol 4,5-bisphosphate 3-kinase catalytic subunit delta isoform (Homo sapiens); conditions: dose 100.0 nM, time 90.0 min
MDA-MB-231 = assay: Antiproliferative activity against human MDA-MB-231 cells; format: functional, cell-based
[14] = molecular target: Protein cereblon/Phosphatidylinositol 4,5-bisphosphate 3-kinase catalytic subunit alpha isoform (Homo sapiens, UniProt P42336+Q96SW2); assay: PROTAC activity at CRBN/p110alpha in human MDA-MB-231 cells assessed as induction of p110alpha degradation; format: cell-based
[15] = molecular target: Protein cereblon/Phosphatidylinositol 4,5-bisphosphate 3-kinase catalytic subunit gamma isoform (Homo sapiens, UniProt P48736+Q96SW2); assay: PROTAC activity at CRBN/p110gamma (unknown origin) in Acute myeloid leukemic cell; format: cell-based
Protein cereblon/Phosphatidylinositol 4,5-bisphosphate 3-kinase catalytic subunit gamma isoform, sequence (P48736 whole entry, canonical isoform): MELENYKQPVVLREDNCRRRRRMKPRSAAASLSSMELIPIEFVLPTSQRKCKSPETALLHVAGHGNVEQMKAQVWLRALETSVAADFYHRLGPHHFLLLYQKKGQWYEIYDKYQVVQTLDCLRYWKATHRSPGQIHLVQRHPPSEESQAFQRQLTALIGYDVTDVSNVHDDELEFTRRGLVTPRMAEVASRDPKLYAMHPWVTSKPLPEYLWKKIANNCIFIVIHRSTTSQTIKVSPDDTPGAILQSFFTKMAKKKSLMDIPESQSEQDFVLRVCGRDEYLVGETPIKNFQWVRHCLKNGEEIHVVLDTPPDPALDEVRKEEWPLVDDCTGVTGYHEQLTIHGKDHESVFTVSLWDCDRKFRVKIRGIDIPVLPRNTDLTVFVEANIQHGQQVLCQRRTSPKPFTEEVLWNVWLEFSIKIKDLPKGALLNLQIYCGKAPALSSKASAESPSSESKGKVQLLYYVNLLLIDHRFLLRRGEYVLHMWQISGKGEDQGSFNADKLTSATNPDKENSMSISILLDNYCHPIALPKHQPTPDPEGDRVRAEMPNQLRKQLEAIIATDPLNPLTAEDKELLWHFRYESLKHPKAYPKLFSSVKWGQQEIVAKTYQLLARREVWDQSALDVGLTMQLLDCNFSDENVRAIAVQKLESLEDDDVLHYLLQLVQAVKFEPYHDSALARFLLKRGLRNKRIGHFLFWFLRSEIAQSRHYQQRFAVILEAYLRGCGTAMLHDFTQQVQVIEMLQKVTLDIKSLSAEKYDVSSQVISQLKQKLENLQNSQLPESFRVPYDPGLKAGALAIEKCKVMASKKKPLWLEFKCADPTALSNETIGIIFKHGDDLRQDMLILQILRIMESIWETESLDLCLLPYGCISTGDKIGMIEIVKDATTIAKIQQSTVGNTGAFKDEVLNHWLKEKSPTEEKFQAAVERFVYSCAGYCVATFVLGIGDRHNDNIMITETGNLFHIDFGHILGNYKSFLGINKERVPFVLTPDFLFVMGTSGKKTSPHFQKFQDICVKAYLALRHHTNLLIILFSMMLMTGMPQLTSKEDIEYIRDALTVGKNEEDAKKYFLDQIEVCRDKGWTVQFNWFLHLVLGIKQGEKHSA
Protein cereblon/Phosphatidylinositol 4,5-bisphosphate 3-kinase catalytic subunit gamma isoform, sequence (Q96SW2 whole entry, canonical isoform): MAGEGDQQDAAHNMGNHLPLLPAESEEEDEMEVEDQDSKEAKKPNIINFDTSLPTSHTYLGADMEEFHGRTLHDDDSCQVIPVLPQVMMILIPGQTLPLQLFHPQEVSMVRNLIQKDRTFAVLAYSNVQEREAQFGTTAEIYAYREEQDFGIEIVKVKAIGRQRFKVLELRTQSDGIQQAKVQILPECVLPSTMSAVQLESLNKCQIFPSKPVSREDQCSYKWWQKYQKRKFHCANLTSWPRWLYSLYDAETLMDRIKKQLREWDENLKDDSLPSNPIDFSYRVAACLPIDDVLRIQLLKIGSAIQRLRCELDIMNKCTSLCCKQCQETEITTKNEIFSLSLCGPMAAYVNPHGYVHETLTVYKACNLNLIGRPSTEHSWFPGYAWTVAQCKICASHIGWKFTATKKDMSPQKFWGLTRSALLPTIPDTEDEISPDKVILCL

Protein cereblon/Phosphatidylinositol 4,5-bisphosphate 3-kinase catalytic subunit alpha isoform, sequence (P42336 whole entry, canonical isoform): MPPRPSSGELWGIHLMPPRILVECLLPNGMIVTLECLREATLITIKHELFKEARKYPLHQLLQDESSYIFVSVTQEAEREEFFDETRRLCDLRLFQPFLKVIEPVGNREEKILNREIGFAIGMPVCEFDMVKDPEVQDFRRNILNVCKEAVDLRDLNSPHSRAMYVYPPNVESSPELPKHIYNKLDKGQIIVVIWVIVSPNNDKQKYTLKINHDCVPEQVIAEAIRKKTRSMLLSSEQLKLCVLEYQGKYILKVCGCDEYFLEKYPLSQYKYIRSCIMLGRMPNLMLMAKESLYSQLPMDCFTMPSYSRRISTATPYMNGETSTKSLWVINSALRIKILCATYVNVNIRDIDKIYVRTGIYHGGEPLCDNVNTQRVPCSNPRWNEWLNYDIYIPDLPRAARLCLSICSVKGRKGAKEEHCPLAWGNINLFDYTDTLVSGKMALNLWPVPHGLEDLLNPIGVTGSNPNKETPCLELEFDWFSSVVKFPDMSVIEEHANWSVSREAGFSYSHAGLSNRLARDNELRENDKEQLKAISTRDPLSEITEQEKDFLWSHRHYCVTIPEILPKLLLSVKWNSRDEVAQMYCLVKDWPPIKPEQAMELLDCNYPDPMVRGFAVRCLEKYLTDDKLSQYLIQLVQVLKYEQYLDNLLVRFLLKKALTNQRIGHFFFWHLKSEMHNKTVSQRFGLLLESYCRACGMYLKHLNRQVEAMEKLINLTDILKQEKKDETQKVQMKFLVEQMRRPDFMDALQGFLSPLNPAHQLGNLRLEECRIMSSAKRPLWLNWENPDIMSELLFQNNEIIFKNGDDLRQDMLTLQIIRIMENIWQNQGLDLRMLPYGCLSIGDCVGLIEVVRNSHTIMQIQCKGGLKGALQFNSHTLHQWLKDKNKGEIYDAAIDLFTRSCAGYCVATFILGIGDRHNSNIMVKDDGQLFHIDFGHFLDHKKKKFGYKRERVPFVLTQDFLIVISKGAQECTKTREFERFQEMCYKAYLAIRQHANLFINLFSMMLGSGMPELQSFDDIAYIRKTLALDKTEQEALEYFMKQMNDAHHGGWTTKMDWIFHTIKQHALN
Protein cereblon/Phosphatidylinositol 4,5-bisphosphate 3-kinase catalytic subunit alpha isoform, sequence (Q96SW2 whole entry, canonical isoform): as the sequence (Q96SW2 whole entry, canonical isoform) above
von Hippel-Lindau disease tumor suppressor/Phosphatidylinositol 4,5-bisphosphate 3-kinase catalytic subunit delta isoform (Homo sapiens), sequence (P40337 whole entry, looked up, one chain of several, canonical isoform): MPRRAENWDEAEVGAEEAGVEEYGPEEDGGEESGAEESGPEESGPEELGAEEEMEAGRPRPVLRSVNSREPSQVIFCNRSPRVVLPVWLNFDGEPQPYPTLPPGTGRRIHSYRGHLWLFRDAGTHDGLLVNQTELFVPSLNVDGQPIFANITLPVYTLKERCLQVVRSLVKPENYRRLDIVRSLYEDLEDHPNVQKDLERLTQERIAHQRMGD

`COc1ncc(-c2ccc3ncnc(N[C@H]4CCN(C(=O)C5CCOCC5)C4)c3n2)cc1C(=O)Oc1ccccc1` was tested, and the Activity [1] was under 20% and the Activity [2] was “Not active; Formation Of Ternary Complex Plays A Pivotal Factor In Degradation”.
In the case of `CC[C@H](Nc1ncnc2[nH]cnc12)c1nc2cccc(F)c2c(=O)n1-c1ccccc1` [IDELALISIB], the Activity (SU-DHL-6 [3]) is reported as 4.89%, the GI50 (Pfeiffer) is reported as 8550 nM and the viability at 1 µM (SU-DHL-6 [4]) is reported as 91.7%. It also gave an Activity (SU-DHL-6 [5]) of 0.13%, an Activity (SU-DHL-6 [6]) of 0.18% and a GI50 (SU-DHL-6 [7]) of 250 nM. It also gave an Activity (SU-DHL-6 [8]) of 8.2%, an inhibition in vivo at 2 mg/kg (SU-DHL-6 [9]) of 36.3% and a viability at 10 µM (SU-DHL-6 [10]) of 80.1%. It also gave an Activity (SU-DHL-6 [11]) of 3.25%, an Activity (SU-DHL-6 [12]) of 11.55% and an inhibition [13] of 81%.
For `COc1c(OCCOCCOCCCCCc2cn(CCCCCNc3cccc4c3C(=O)N(C3CCC(=O)NC3=O)C4=O)nn2)ccc2c1N=C(NC(=O)c1cnc(N)nc1)N1CCN=C21` (configuration not stated), the IC50 (MDA-MB-231) was 86.8 nM and the DC50 [14] was 5 nM.
`Cc1cc(-c2sc(NC(=O)CCCC(=O)NCCCCCCCC(=O)Nc3cccc4c3C(=O)N(C3CCC(=O)NC3=O)C4=O)nc2C)cc2c1C(=O)N([C@H](C)C1CC1)C2` (some centres not stated) was tested, and the DC50 [15] was over 100 nM.
